{"source": "patent US9605027B2", "about": "“Polypeptides that bound to IL-23 receptor and inhibit binding of IL-23 and cell signaling thereof” (Medical Diagnostic Laboratories, LLC, priority 2011, dated 2017)", "key": {"[1]": {"assay": "Solubility of synthetic polypeptides (precipitate in assay)", "format": "physicochemical", "conditions": "under Competitive ELISA conditions"}, "[2]": {"molecular_target": "T1, Recombinant human IL-23R-Fc (Homo sapiens, UniProt Q5VWK5)", "T1 construct": "has the protein portion between the 24 amino acid residue to 353 amino acid residue; purchased R&D Systems 1400-IR-050", "T1 sequence (Q5VWK5 24-353)": "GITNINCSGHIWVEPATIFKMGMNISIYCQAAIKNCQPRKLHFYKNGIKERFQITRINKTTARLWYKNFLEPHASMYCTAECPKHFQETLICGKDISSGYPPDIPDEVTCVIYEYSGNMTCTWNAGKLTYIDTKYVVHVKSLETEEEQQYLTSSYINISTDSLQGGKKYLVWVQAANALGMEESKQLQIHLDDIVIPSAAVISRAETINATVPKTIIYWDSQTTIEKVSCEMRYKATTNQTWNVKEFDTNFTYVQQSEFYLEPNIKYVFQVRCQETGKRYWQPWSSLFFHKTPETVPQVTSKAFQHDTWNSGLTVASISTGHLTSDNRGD", "assay": "Competitive ELISA, IL-23 binding to IL-23R", "conditions": "for IC50: human IL-23 / IL-23R-Fc, read-out: IC50, Competitive ELISA; for inhibition of IL-23 binding to its receptor by modified polypeptides, Competitive ELISA: procedure of Example 6, compared with parent polypeptide", "procedure": "The novel polypeptides were tested for their ability to inhibit IL-23 using a Competitive ELISA. In such an assay, IL-23R/Fc fusion protein was immobilized on a solid support. In this instance, the solid support was a 96-well plate, but the support may be any support that is typically used for an ELISA. The novel polypeptide and IL-23 were allowed to compete for binding to the immobilized IL-23R/Fc fusion protein. IL-23 that bound to IL-23R-Fc was detected using biotinylated anti-p40 antibody. The bound anti-p40 antibody was detected using streptavidin-horseradish peroxidase (HRP) and a tetramethylbenzidine (TMB) substrate was added to measure peroxidase activity. The color was measured at optical density (OD) 450nm. The color intensity was directly proportional to the amount of the bound IL-23 protein. […] (See, FIG. 16.)\n(§1) FIG. 12 is a schematic depiction of the Competitive ELISA. Recombinant human IL-23R-Fc (2 μg/ml) was coated onto microtiter plates as a capture reagent. IL-23 and polypeptides were added to compete for binding to the immobilized IL-23R-Fc. IL-23 that bound to IL-23R-Fc was detected using biotinylated anti-p40 antibody (1:250). The bound anti-p40 antibody was detected using streptavidin-horseradish peroxidase (HRP) (1:500) and 100 μl/well of a tetramethylbenzidine (TMB) substrate was added to measure peroxidase activity. The color was measured at optical density (OD) 450nm. (See, FIG. 12). The color intensity was directly proportional to the amount of the bound IL-23 protein.\nas §1, with “Recombinant” for “FIG. 12 is a schematic depiction of the Competitive ELISA. Recombinant”, “IL-23R-Fc. 50 μg human IL-23 (Cat. No. HZ-1048) (Humanzyme, Chicago, Ill.) in the presence or absence of 100 μM peptides was added to the well and incubated at 4° C. overnight.” for “IL-23R-Fc.”, “450nm.” for “450nm. (See, FIG. 12).”"}, "[3]": {"molecular_target": "T2, IL-23R deletion proteins (Homo sapiens, UniProt Q5VWK5)", "T2 construct": "made in house; host or cells: 293T cells (culture media)", "T2 sequence (Q5VWK5 24-200)": "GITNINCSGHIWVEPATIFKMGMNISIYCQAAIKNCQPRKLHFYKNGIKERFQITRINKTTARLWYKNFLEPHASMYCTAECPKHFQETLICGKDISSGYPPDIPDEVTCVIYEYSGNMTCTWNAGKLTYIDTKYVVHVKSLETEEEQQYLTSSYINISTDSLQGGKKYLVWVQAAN", "assay": "Immunoprecipitation with FLAG-tagged IL-23R deletion proteins", "format": "binding", "conditions": "200 ng, anti-FLAG M2 immunoprecipitation, Western blot", "procedure": "(§2) In this study, we examined which regions of IL-23R proteins were required for the binding to IL-23 and polypeptide no. 23.15-fc fusion protein. To do so, we generated a series of IL-23R deletion proteins as illustrated in the FIG. 48.\n(§3) Culture media from 293T cells transfected with different FLAG-tagged IL-23R deletion constructs were incubated with 200 ng of either IL-23 or polypeptide no. 23.15-fc fusion protein, then immunoprecipitated with anti-FLAG M2 affinity gel. The immunoprecipitate was subjected to Western blotting and polypeptide no. 23.15-Fc fusion protein or IL-23 was visualized with either anti-mouse IgG or anti-hIL-12/23p40 respectively. IL-23 or polypeptide no. […] 23.15-fc fusion protein (FIG. 48)."}, "[4]": {"tested_on": "IL-23R deletion proteins", "assay": "Immunoprecipitation with FLAG-tagged IL-23R deletion proteins", "format": "binding", "conditions": "200 ng, anti-FLAG M2 immunoprecipitation, Western blot", "procedure": "as §2, §3"}, "[5]": {"molecular_target": "T3, IL-23R pathway in STAT3-Luc reporter DB cells (Homo sapiens, UniProt Q5VWK5)", "assay": "STAT3-Luc reporter DB cells stimulated with IL-23 cytokines", "format": "cell-based", "procedure": "In Example 29 (above), we detailed the development of stably transfected STAT3-Luc reporter clone. […] The stably transfected STAT3-Luc reporter DB cells (0.5×10^6 cells) were cultured in 100 μl of RPMI+10% FBS. Recombinant IL-23 (Humanzyme) or isolated IL-23 (WT or W5) was added to the cells and incubated at 37° C. for 4 hours. Luciferase activity was measured using Dual-Glo luciferase assay system (Promega).\nThe reporter luciferase activity increased by approximately 10 folds. Isolated WT IL-23 cytokine at different concentrations (50,000, 5,000, 500 and 50 ng/ml) was added to stimulate these stable cells. […] At the concentration of 50 ng/ml, the isolated WT IL-23 cytokine stimulates the IL-23R pathway as good as the recombinant IL-23 cytokine from Humazyme."}, "[6]": {"molecular_target": "T3, IL-23R pathway in STAT3-Luc reporter DB cells", "assay": "Cell-based STAT3-Luc reporter DB cell assay (DB-Luc), inhibition of IL-23", "conditions": "cyclic vs linear peptides", "procedure": "(§4) The Cignal STAT3 reporter (SA Biosciences, CCS-9028L), designed to measure the transcriptional activity of STAT3 homodimers, was transiently transfected into the DB cells. The stably transfected STAT3-Luc reporter clone was selected using 200 ng/ml of Hygromycin B.\nThe stably transfected STAT3-Luc reporter DB cells (0.5×10^6) were cultured in 100 μl of RPMI+10% FBS. IL-23 was added to the cells and incubated at 37° C. for 4 hours. Luciferase activity was measured using Dual-Glo luciferase assay system (Promega).\nThe isolated cyclic polypeptide no. 23.15-Fc fusion protein and cyclic polypeptide no. 23.19 were used in a cell-based assay to measure the IC50 values. The stably transfected STAT3-Luc reporter DB cells (0.5×10^6) were cultured in 100 μl of RPMI+10% FBS. The cells were pre-incubated with different concentration of isolated cyclic polypeptide no. 23.15-Fc fusion protein or polypeptide no. 23.19 for 30 minutes at 37° C. 50 ng/ml of IL-23 was added to the cells and incubated at 37° C. for an additional 4 hours. Luciferase activity was measured using Dual-Glo luciferase assay system (Promega). The IC50 values of isolated cyclic polypeptide no. 23.15-Fc fusion protein and cyclic polypeptide no. 23.19 are 2.5 μM and 2.5 μM respectively.\nThe isolated peptide no. 7 (SEQ ID NO: 156) and peptide no. 23.19 (SEQ ID NO: 130) (it is a cyclic version of the polypeptide no. 23.15) were used in a cell based assay to compare their inhibitory activity. The stably transfected STAT3-Luc reporter DB cells (0.5×10^6) were cultured in 100 μl of RPMI+10% FBS. The cells were pre-incubated with two different concentrations (10 μM and 2 μM) of isolated peptides for 30 minutes at 37° C. 50 ng/ml of IL-23 was added to the cells and incubated at 37° C. for an additional 4 hours. Luciferase activity was measured using Dual-Glo luciferase assay system (Promega). The inhibitory activity of isolated peptide no. 7 (SEQ ID NO: 156) is better than that of peptide no. 23.19 (SEQ ID NO: 130) (a cyclic version of polypeptide no. 23.15 (SEQ ID NO: 126) (See, FIG. 62).\nDB cells express IL-23R on the cell surface. In addition, IL-23 stimulated the DB cells through the activation of STAT3 by phosphorylation (p-STAT3) (Example 7 (Figures. 14 and 15)). Based on these observations, DB cells were used to develop a cell-based assay to measure the inhibitory activity of peptide and peptide-Fc fusion protein in the IL-23R pathway. […]\nas §4, with “CCS-9028L), which is” for “CCS-9028L),”, “B. The activity of IL-23R pathway can be measured by the transcriptional activity of STAT3 homodimers. […]” for “B.”"}}, "note": "“Also recorded” adds a separate entry of the source. Bridge positions count the residues as written; N and C are the ends. Ends that are not written are not given here.", "data": [{"compound": "ASWVQYWVQ [1.4]", "values": [{"measurement": "solubility", "setting": "[1]", "result": "formed a precipitate"}]}, {"compound": "SGASWVQYWWWR [1.21]", "values": [{"measurement": "solubility", "setting": "[1]", "result": "insoluble"}]}, {"compound": "SGASWVQYWVQR [Polypeptide no. 1]", "values": [{"measurement": "IC50", "setting": "[2]", "result": "6.25 to 12.5", "unit": "µM"}]}, {"compound": "7 CC (CMKTWVDYWLETQC; disulfide 1-14 (inferred); listed as Homo sapiens)", "values": [{"measurement": "inhibition of IL-23 binding to its receptor by modified polypeptides, Competitive ELISA", "setting": "[2]", "result": "did not abrogate the polypeptides' ability"}]}, {"compound": "SGAWWVQYWVQR [1.18]", "values": [{"measurement": "solubility", "setting": "[1]", "result": "insoluble"}]}, {"compound": "SGWWWVQYWVQR [1.20]", "values": [{"measurement": "solubility", "setting": "[1]", "result": "insoluble"}]}, {"compound": "AMTWEDWWLYGR [compound 23]", "values": [{"measurement": "IC50", "setting": "[2]", "result": "< 1.56", "unit": "µM"}]}, {"compound": "CSCC[C@H](NC(=O)[C@H](C)N)C(=O)N[C@H](C(=O)N[C@@H](Cc1c[nH]c2ccccc12)C(=O)N[C@@H](CCC(N)=O)C(=O)N[C@@H](CC(=O)O)C(=O)N[C@@H](Cc1ccc(O)cc1)C(=O)N[C@@H](Cc1c[nH]c2ccccc12)C(=O)N[C@@H](CC(C)C)C(=O)N[C@@H](Cc1ccc(O)cc1)C(=O)NCC(=O)N[C@@H](CCCNC(=N)N)C(=O)O)[C@@H](C)O", "note": "[23.15]", "values": [{"measurement": "inhibition of IL-23 binding to its receptor by modified polypeptides, Competitive ELISA", "setting": "[2]", "result": "at least as effective"}]}, {"compound": "DDWMQYWRQQVR [compound 27]", "values": [{"measurement": "IC50", "setting": "[2]", "result": "~1.56", "unit": "µM"}]}, {"compound": "IL-23: heterodimeric cytokine of p19 and p40 subunits; recombinant from Humanzyme", "values": [{"measurement": "binding to IL-23R deletion protein 1-200", "setting": "[3]", "result": "failed to bind"}, {"measurement": "binding to IL-23R deletion proteins 1-348, 1-318 or 1-250", "setting": "[4]", "result": "detected in the precipitate"}, {"measurement": "increase of reporter luciferase activity", "setting": "[5]; 50 ng/ml", "result": "approximately 10 folds"}]}, {"compound": "NWATYWQLRHQT [compound 9]", "values": [{"measurement": "inhibitory activity in Competitive ELISA in relation to polypeptide no. 1", "setting": "[2]; 50 μM polypeptide, 30 ng/ml IL-23", "result": "significant and better inhibitory activity compared to peptide number 1; also recorded: inhibited IL-23 binding more than polypeptide no. 1"}, {"measurement": "IC50", "setting": "[2]", "result": "~3", "unit": "µM"}]}, {"compound": "WT: IL-23 cytokine with wild type p19 subunit, expressed in 293T cells", "values": [{"measurement": "stimulation of STAT3 reporter activity", "setting": "[5]; 50,000, 5,000, 500 and 50 ng/ml", "result": "stimulates the STAT3 activity in a dose-dependent manner"}]}, {"compound": "SGASWVQFWVQR [1.17]", "values": [{"measurement": "solubility", "setting": "[1]", "result": "formed a precipitate"}]}, {"compound": "7HT AA (AMKTWVDYWLETQA; head-to-tail cyclic; listed as Homo sapiens)", "values": [{"measurement": "inhibitory activity in cell-based DB-Luc assay", "setting": "[6]", "result": "did not eliminate the inhibitory activity"}, {"measurement": "inhibition of IL-23 binding to its receptor by modified polypeptides, Competitive ELISA", "setting": "[2]", "result": "did not abrogate the polypeptides' ability"}]}]}
